What was measured:
[1] = Stability in organic medium (dimethyl sulfoxide) by UV-Vis spectroscopy; assay type: physicochemical; conditions: band 357-425 nm (λmax in column head)
Procedure: (§1) The stability of the complexes 4-11 in organic and aqueous media was evaluated over 24 h by UV-Vis spectroscopy at room temperature, in dark, on a Jasco V-660 spectrometer using quartz cuvettes (1 cm optical path length). The electronic spectra (270-900 nm) were acquired at regular periods of time (0 h, 0.25 h, 0.5 h, 0.75 h, 1 h, 2 h, 3 h, 4 h, 5 h, 6 h, 24 h) for solutions of 100% dimethyl sulfoxide (complexes 4-11) and 5% dimethyl sulfoxide/95% Dulbecco's Modified Eagle Medium (complexes 4, 5 and 8-11) or 10% dimethyl sulfoxide/90% Dulbecco's Modified Eagle Medium (complexes 6 and 7) at concentrations ranging from 7.0×10^-5 M to 3.0×10^-4 M.

[2] = Stability in aqueous medium (dimethyl sulfoxide/Dulbecco's Modified Eagle Medium) by UV-Vis spectroscopy; assay type: physicochemical; conditions: for Relative variation of the maximum absorbance of the π→π* transitions: band 292-296 nm (λmax in column head); for Relative variation of the maximum absorbance of the charge transfer bands: band 358-400 nm (λmax in column head)
Procedure: as §1

[3] = 5% dimethyl sulfoxide/95% Dulbecco's Modified Eagle Medium, time 0 h
[4] = 5% dimethyl sulfoxide/95% Dulbecco's Modified Eagle Medium, time 0.25 h
[5] = 5% dimethyl sulfoxide/95% Dulbecco's Modified Eagle Medium, time 0.5 h
[6] = 5% dimethyl sulfoxide/95% Dulbecco's Modified Eagle Medium, time 0.75 h
[7] = 5% dimethyl sulfoxide/95% Dulbecco's Modified Eagle Medium, time 1 h
[8] = 5% dimethyl sulfoxide/95% Dulbecco's Modified Eagle Medium, time 2 h
[9] = 5% dimethyl sulfoxide/95% Dulbecco's Modified Eagle Medium, time 3 h
[10] = 5% dimethyl sulfoxide/95% Dulbecco's Modified Eagle Medium, time 4 h
[11] = 5% dimethyl sulfoxide/95% Dulbecco's Modified Eagle Medium, time 5 h
[12] = 5% dimethyl sulfoxide/95% Dulbecco's Modified Eagle Medium, time 6 h
[13] = 5% dimethyl sulfoxide/95% Dulbecco's Modified Eagle Medium, time 24 h
[14] = 10% dimethyl sulfoxide/90% Dulbecco's Modified Eagle Medium, time 0 h
[15] = 10% dimethyl sulfoxide/90% Dulbecco's Modified Eagle Medium, time 0.25 h
[16] = 10% dimethyl sulfoxide/90% Dulbecco's Modified Eagle Medium, time 0.5 h
[17] = 10% dimethyl sulfoxide/90% Dulbecco's Modified Eagle Medium, time 0.75 h
[18] = 10% dimethyl sulfoxide/90% Dulbecco's Modified Eagle Medium, time 1 h
[19] = 10% dimethyl sulfoxide/90% Dulbecco's Modified Eagle Medium, time 2 h
[20] = 10% dimethyl sulfoxide/90% Dulbecco's Modified Eagle Medium, time 3 h
[21] = 10% dimethyl sulfoxide/90% Dulbecco's Modified Eagle Medium, time 4 h
[22] = 10% dimethyl sulfoxide/90% Dulbecco's Modified Eagle Medium, time 5 h
[23] = 10% dimethyl sulfoxide/90% Dulbecco's Modified Eagle Medium, time 6 h
[24] = 10% dimethyl sulfoxide/90% Dulbecco's Modified Eagle Medium, time 24 h

In the case of `CCOC(=O)Oc1cc[n+]2c(c1)-c1cc(OC)cc[n+]1[Ru-]2([CH]1C=CC=C1)[PH](c1ccccc1)(c1ccccc1)c1ccccc1.O=S(=O)([O-])C(F)(F)F` (stereo not drawn) [compound 11], the “Relative variation of the maximum absorbance of the charge transfer bands” value ([1]; time 0 h) was 0.0%, the “Relative variation of the maximum absorbance of the charge transfer bands” value ([1]; time 0.25 h) was 0.0% and the “Relative variation of the maximum absorbance of the charge transfer bands” value ([1]; time 0.5 h) was 0.2%. The “Relative variation of the maximum absorbance of the charge transfer bands” value ([1]; time 0.75 h) was 0.1%, the “Relative variation of the maximum absorbance of the charge transfer bands” value ([1]; time 1 h) was 0.3% and the “Relative variation of the maximum absorbance of the charge transfer bands” value ([1]; time 2 h) was 0.1%. The “Relative variation of the maximum absorbance of the charge transfer bands” value ([1]; time 3 h) was 0.0%, the “Relative variation of the maximum absorbance of the charge transfer bands” value ([1]; time 4 h) was −0.2% and the “Relative variation of the maximum absorbance of the charge transfer bands” value ([1]; time 5 h) was −0.3%. For the same compound, the “Relative variation of the maximum absorbance of the charge transfer bands” value ([1]; time 6 h) was −0.3%, the “Relative variation of the maximum absorbance of the charge transfer bands” value ([1]; time 24 h) was 0.2% and the “Relative variation of the maximum absorbance of the π→π* transitions” value (shortened to “Relative variation … of the π→π* transitions”) [2, 3] was 0.0%. The “Relative variation of the maximum absorbance of the charge transfer bands” value [2, 3] was 0.0%, the “Relative variation … of the π→π* transitions” value [2, 4] was −0.2% and the “Relative variation of the maximum absorbance of the charge transfer bands” value [2, 4] was −0.1%. The “Relative variation … of the π→π* transitions” value [2, 5] was −0.3%, the “Relative variation of the maximum absorbance of the charge transfer bands” value [2, 5] was 0.0% and the “Relative variation … of the π→π* transitions” value [2, 6] was −0.2%. For the same compound, the “Relative variation of the maximum absorbance of the charge transfer bands” value [2, 6] was 0.1%, the “Relative variation … of the π→π* transitions” value [2, 7] was −0.2% and the “Relative variation of the maximum absorbance of the charge transfer bands” value [2, 7] was 0.1%. For the same compound, the “Relative variation … of the π→π* transitions” value [2, 8] was −0.5%, the “Relative variation of the maximum absorbance of the charge transfer bands” value [2, 8] was 0.1% and the “Relative variation … of the π→π* transitions” value [2, 9] was −0.4%. The “Relative variation of the maximum absorbance of the charge transfer bands” value [2, 9] was 0.1%, the “Relative variation … of the π→π* transitions” value [2, 10] was −0.9% and the “Relative variation of the maximum absorbance of the charge transfer bands” value [2, 10] was 0.0%. For the same compound, the “Relative variation … of the π→π* transitions” value [2, 11] was −0.7%, the “Relative variation of the maximum absorbance of the charge transfer bands” value [2, 11] was 0.1% and the “Relative variation … of the π→π* transitions” value [2, 12] was −0.4%. For the same compound, the “Relative variation of the maximum absorbance of the charge transfer bands” value [2, 12] was 0.2%, the “Relative variation … of the π→π* transitions” value [2, 13] was −1.0% and the “Relative variation of the maximum absorbance of the charge transfer bands” value [2, 13] was 0.4%.
For `CC(=O)C1=C[CH]([Ru-]2([PH](c3ccccc3)(c3ccccc3)c3ccccc3)[n+]3cccc4ccc5ccc[n+]2c5c43)C=C1.O=S(=O)([O-])C(F)(F)F` (stereo not drawn) [compound 6], the “Relative variation of the maximum absorbance of the charge transfer bands” value ([1]; time 0 h) was 0.0%, the “Relative variation of the maximum absorbance of the charge transfer bands” value ([1]; time 0.25 h) was −0.1% and the “Relative variation of the maximum absorbance of the charge transfer bands” value ([1]; time 0.5 h) was 0.2%. For the same compound, the “Relative variation of the maximum absorbance of the charge transfer bands” value ([1]; time 0.75 h) was 0.0%, the “Relative variation of the maximum absorbance of the charge transfer bands” value ([1]; time 1 h) was 0.9% and the “Relative variation of the maximum absorbance of the charge transfer bands” value ([1]; time 2 h) was 2.6%. The “Relative variation of the maximum absorbance of the charge transfer bands” value ([1]; time 3 h) was 1.3%, the “Relative variation of the maximum absorbance of the charge transfer bands” value ([1]; time 4 h) was 1.5% and the “Relative variation of the maximum absorbance of the charge transfer bands” value ([1]; time 5 h) was −0.2%. The “Relative variation of the maximum absorbance of the charge transfer bands” value ([1]; time 6 h) was −0.3%, the “Relative variation of the maximum absorbance of the charge transfer bands” value ([1]; time 24 h) was 0.3% and the “Relative variation … of the π→π* transitions” value [2, 14] was 0.0%. For the same compound, the “Relative variation of the maximum absorbance of the charge transfer bands” value [2, 14] was 0.0%, the “Relative variation … of the π→π* transitions” value [2, 15] was −0.4% and the “Relative variation of the maximum absorbance of the charge transfer bands” value [2, 15] was 0.0%. The “Relative variation … of the π→π* transitions” value [2, 16] was 0.4%, the “Relative variation of the maximum absorbance of the charge transfer bands” value [2, 16] was 0.4% and the “Relative variation … of the π→π* transitions” value [2, 17] was 0.3%. For the same compound, the “Relative variation of the maximum absorbance of the charge transfer bands” value [2, 17] was 0.3%, the “Relative variation … of the π→π* transitions” value [2, 18] was −0.2% and the “Relative variation of the maximum absorbance of the charge transfer bands” value [2, 18] was 0.0%. The “Relative variation … of the π→π* transitions” value [2, 19] was 1.0%, the “Relative variation of the maximum absorbance of the charge transfer bands” value [2, 19] was 0.6% and the “Relative variation … of the π→π* transitions” value [2, 20] was 2.0%. The “Relative variation of the maximum absorbance of the charge transfer bands” value [2, 20] was 0.8%, the “Relative variation … of the π→π* transitions” value [2, 21] was 2.1% and the “Relative variation of the maximum absorbance of the charge transfer bands” value [2, 21] was 0.8%. The “Relative variation … of the π→π* transitions” value [2, 22] was 1.3%, the “Relative variation of the maximum absorbance of the charge transfer bands” value [2, 22] was 0.4% and the “Relative variation … of the π→π* transitions” value [2, 23] was 1.5%. The “Relative variation of the maximum absorbance of the charge transfer bands” value [2, 23] was 0.2%, the “Relative variation … of the π→π* transitions” value [2, 24] was 5.3% and the “Relative variation of the maximum absorbance of the charge transfer bands” value [2, 24] was 1.8%.
